From ChEMBL document CHEMBL3885861, “Open TG-GATES”

Species: Rattus norvegicus
Experiment: Open TG-GATES - Regimen: Daily Repeat
Assay type: toxicity, organism-based, Sprague-Dawley
Parameters: regimen Daily Repeat, gender Male, age 6 weeks
Conditions: in vivo, iv, route intravenous injection; for KIDNEY_L / KIDNEY_R / KIDNEY_TOTAL: tissue Kidney; for LIVER: tissue Liver
[1] = 0 mg/kg, 72 h, dose level Control, time 3 day
[2] = 0 mg/kg, 72 h, tissue Blood, dose level Control, time 3 day
[3] = 0 mg/kg, 72 h, tissue Plasma, dose level Control, time 3 day
[4] = 0 mg/kg, […], dose level Control, time 7 day
[5] = 0 mg/kg, […], dose level Control, time 14 day
[6] = 0 mg/kg, […], dose level Control, time 28 day
[7] = 0 mg/kg, […], tissue Blood, dose level Control, time 7 day
[8] = 0 mg/kg, […], tissue Blood, dose level Control, time 14 day
[9] = 0 mg/kg, […], tissue Blood, dose level Control, time 28 day
[10] = 0 mg/kg, […], tissue Plasma, dose level Control, time 7 day
[11] = 0 mg/kg, […], tissue Plasma, dose level Control, time 14 day
[12] = 0 mg/kg, […], tissue Plasma, dose level Control, time 28 day
[13] = 1 mg/kg, 72 h, tissue Blood, dose level High, time 3 day
[14] = 1 mg/kg, 72 h, dose level High, time 3 day
[15] = 1 mg/kg, 72 h, tissue Plasma, dose level High, time 3 day
[16] = 1 mg/kg, […], dose level High, time 7 day
[17] = 1 mg/kg, […], dose level High, time 14 day
[18] = 1 mg/kg, […], dose level High, time 28 day
[19] = 1 mg/kg, […], tissue Blood, dose level High, time 7 day
[20] = 1 mg/kg, […], tissue Blood, dose level High, time 14 day
[21] = 1 mg/kg, […], tissue Blood, dose level High, time 28 day
[22] = 1 mg/kg, […], tissue Plasma, dose level High, time 7 day
[23] = 1 mg/kg, […], tissue Plasma, dose level High, time 14 day
[24] = 1 mg/kg, […], tissue Plasma, dose level High, time 28 day

CISPLATIN
TERMINAL_BW [1]: 225.2 g
APTT [2]: 23.7 s
Bas [2]: 0%
Eos [2]: 1%
Fbg [2]: 289.6 mg/dL
Hb [2]: 12.9 g/dL
Ht [2]: 39.8%
Lym [2]: 80.8%
MCV [2]: 63 fL
Mono [2]: 2.6%
Plat [2]: 132.8 x10_4/uL
RBC [2]: 631.8 x10_4/ul
Ret [2]: 5.8%
WBC [2]: 106.8 x10_2/uL
KIDNEY_L [1]: 1 g
KIDNEY_R [1]: 1 g
KIDNEY_TOTAL [1]: 1.9 g
ALP [3]: 1659.4 IU/L
ALT [3]: 40.4 IU/L
BUN [3]: 16.2 mg/dL
CRE [3]: 0.2 mg/dL
DBIL [3]: 0 mg/dL
GLC [3]: 196.6 mg/dL
IP [3]: 6.7 mg/dL
K [3]: 4.2 meq/L
LDH [3]: 219.6 IU/L
PL [3]: 136 mg/dL
RALB [3]: 2.9 g/dL
TBIL [3]: 0.004 mg/dL
TC [3]: 69.4 mg/dL
TG [3]: 113.4 mg/dL
TP [3]: 5.4 g/dL
gamma-GTP [3]: 1.6 IU/L
TERMINAL_BW [4]: 261.4 g
TERMINAL_BW [5]: 291.7 g
TERMINAL_BW [6]: 381.4 g
APTT [7]: 24.4 s
Bas [7]: 0%
Eos [7]: 1%
Fbg [7]: 309.2 mg/dL
Ht [7]: 40.3%
Lym [7]: 80%
MCHC [7]: 32.7%
MCV [7]: 63.8 fL
Mono [7]: 2.4%
PT [7]: 16.1 s
Plat [7]: 128.5 x10_4/uL
RBC [7]: 632.6 x10_4/ul
Ret [7]: 5.5%
WBC [7]: 155.9 x10_2/uL
APTT [8]: 23.9 s
Bas [8]: 0%
Eos [8]: 0.8%
Fbg [8]: 345.4 mg/dL
Ht [8]: 41.9%
Lym [8]: 80.8%
MCHC [8]: 33%
MCV [8]: 60.9 fL
Mono [8]: 2.8%
PT [8]: 15.9 s
Plat [8]: 117.5 x10_4/uL
RBC [8]: 688.8 x10_4/ul
Ret [8]: 3.8%
WBC [8]: 116.1 x10_2/uL
APTT [9]: 24.5 s
Bas [9]: 0%
Eos [9]: 1.2%
Fbg [9]: 311.4 mg/dL
Hb [9]: 14.6 g/dL
Ht [9]: 42.7%
Lym [9]: 81.4%
MCHC [9]: 34.1%
MCV [9]: 56.4 fL
Mono [9]: 3%
PT [9]: 16 s
Plat [9]: 104.7 x10_4/uL
RBC [9]: 757.6 x10_4/ul
Ret [9]: 2.2%
WBC [9]: 114.2 x10_2/uL
KIDNEY_L [4]: 1.1 g
KIDNEY_R [4]: 1.1 g
KIDNEY_TOTAL [4]: 2.2 g
KIDNEY_L [5]: 1.2 g
KIDNEY_R [5]: 1.2 g
KIDNEY_TOTAL [5]: 2.3 g
KIDNEY_L [6]: 1.3 g
KIDNEY_R [6]: 1.3 g
KIDNEY_TOTAL [6]: 2.7 g
LIVER [4]: 12.3 g
LIVER [6]: 15.5 g
ALP [10]: 1680.4 IU/L
ALT [10]: 40.2 IU/L
BUN [10]: 17.6 mg/dL
CRE [10]: 0.2 mg/dL
DBIL [10]: 0 mg/dL
IP [10]: 7.2 mg/dL
K [10]: 4.3 meq/L
LDH [10]: 185.6 IU/L
PL [10]: 135.8 mg/dL
RALB [10]: 2.9 g/dL
TBIL [10]: 0.002 mg/dL
TC [10]: 69.2 mg/dL
TG [10]: 124.6 mg/dL
TP [10]: 5.4 g/dL
gamma-GTP [10]: 2.2 IU/L
ALP [11]: 1400.6 IU/L
ALT [11]: 41.2 IU/L
AST [11]: 81.4 IU/L
BUN [11]: 19 mg/dL
CRE [11]: 0.2 mg/dL
DBIL [11]: 0 mg/dL
GLC [11]: 182.2 mg/dL
IP [11]: 7.2 mg/dL
K [11]: 4.3 meq/L
LDH [11]: 164.4 IU/L
PL [11]: 146.8 mg/dL
RALB [11]: 3.1 g/dL
TBIL [11]: 0.002 mg/dL
TC [11]: 70.4 mg/dL
TG [11]: 117.6 mg/dL
TP [11]: 5.8 g/dL
gamma-GTP [11]: 1.8 IU/L
ALP [12]: 1048.2 IU/L
ALT [12]: 37.8 IU/L
AST [12]: 65.2 IU/L
BUN [12]: 19.2 mg/dL
CRE [12]: 0.2 mg/dL
DBIL [12]: 0 mg/dL
GLC [12]: 196.6 mg/dL
IP [12]: 6.4 mg/dL
K [12]: 4.2 meq/L
LDH [12]: 130.2 IU/L
RALB [12]: 3.1 g/dL
TBIL [12]: 0.004 mg/dL
TC [12]: 74.2 mg/dL
TG [12]: 141.8 mg/dL
TP [12]: 6 g/dL
gamma-GTP [12]: 2.8 IU/L
APTT [13]: 23.7 s
Bas [13]: 0%
Eos [13]: 1%
Fbg [13]: 288.4 mg/dL
Ht [13]: 40.9%
Lym [13]: 87%
MCHC [13]: 33%
MCV [13]: 61.4 fL
Mono [13]: 2.2%
Neu [13]: 9%
PT [13]: 15.7 s
Plat [13]: 137 x10_4/uL
RBC [13]: 667 x10_4/ul
Ret [13]: 2.5%
WBC [13]: 69.2 x10_2/uL
KIDNEY_L [14]: 0.9 g
KIDNEY_R [14]: 1 g
KIDNEY_TOTAL [14]: 1.9 g
LIVER [14]: 8.7 g
ALP [15]: 1528.2 IU/L
AST [15]: 75.8 IU/L
CRE [15]: 0.2 mg/dL
Ca [15]: 11 mg/dL
DBIL [15]: 0.002 mg/dL
GLC [15]: 180.8 mg/dL
IP [15]: 7.3 mg/dL
K [15]: 4.3 meq/L
LDH [15]: 270.4 IU/L
PL [15]: 132.6 mg/dL
RALB [15]: 3.1 g/dL
TBIL [15]: 0.026 mg/dL
TG [15]: 54.8 mg/dL
TP [15]: 5.6 g/dL
gamma-GTP [15]: 1.4 IU/L
TERMINAL_BW [16]: 219.4 g
TERMINAL_BW [17]: 226 g
TERMINAL_BW [18]: 172 g
APTT [19]: 27.5 s
Bas [19]: 0%
Eos [19]: 0.8%
Fbg [19]: 299.8 mg/dL
Hb [19]: 14.3 g/dL
Ht [19]: 42.4%
Lym [19]: 82.8%
MCHC [19]: 33.6%
MCV [19]: 59.8 fL
Mono [19]: 3.6%
Neu [19]: 11.4%
PT [19]: 16 s
Plat [19]: 136.4 x10_4/uL
RBC [19]: 708.8 x10_4/ul
Ret [19]: 1%
WBC [19]: 54.2 x10_2/uL
APTT [20]: 26.8 s
Bas [20]: 0%
Eos [20]: 0.4%
Fbg [20]: 276.4 mg/dL
Hb [20]: 14.9 g/dL
Ht [20]: 43.4%
Lym [20]: 80.8%
MCHC [20]: 34.3%
MCV [20]: 58.8 fL
Mono [20]: 4%
Neu [20]: 13.4%
PT [20]: 15.3 s
Plat [20]: 68.4 x10_4/uL
RBC [20]: 739 x10_4/ul
Ret [20]: 0.4%
WBC [20]: 50.8 x10_2/uL
APTT [21]: 17.9 s
Bas [21]: 0%
Eos [21]: 0%
Fbg [21]: 270 mg/dL
Hb [21]: 12.1 g/dL
Ht [21]: 33%
Lym [21]: 77%
MCH [21]: 18.5 pg
MCHC [21]: 36.7%
MCV [21]: 50.5 fL
Mono [21]: 3%
Neu [21]: 20%
PT [21]: 16.9 s
Plat [21]: 3.1 x10_4/uL
RBC [21]: 653 x10_4/ul
Ret [21]: 0.1%
WBC [21]: 32.4 x10_2/uL
KIDNEY_L [16]: 1 g
KIDNEY_R [16]: 1 g
KIDNEY_TOTAL [16]: 2 g
KIDNEY_L [17]: 1.3 g
KIDNEY_R [17]: 1.3 g
KIDNEY_TOTAL [17]: 2.6 g
KIDNEY_L [18]: 2.8 g
KIDNEY_R [18]: 2.8 g
KIDNEY_TOTAL [18]: 5.6 g
LIVER [16]: 10 g
LIVER [17]: 8.8 g
LIVER [18]: 6.8 g
ALP [22]: 1309.4 IU/L
ALT [22]: 31.2 IU/L
AST [22]: 79 IU/L
BUN [22]: 18.4 mg/dL
CRE [22]: 0.2 mg/dL
DBIL [22]: 0.002 mg/dL
GLC [22]: 170.8 mg/dL
IP [22]: 5.9 mg/dL
K [22]: 4.1 meq/L
LDH [22]: 247.4 IU/L
PL [22]: 118.8 mg/dL
RALB [22]: 3.2 g/dL
TBIL [22]: 0.02 mg/dL
TC [22]: 63.4 mg/dL
TG [22]: 64.2 mg/dL
TP [22]: 5.8 g/dL
gamma-GTP [22]: 1.6 IU/L
ALP [23]: 720.4 IU/L
ALT [23]: 37.6 IU/L
AST [23]: 102.8 IU/L
BUN [23]: 42.2 mg/dL
CRE [23]: 0.5 mg/dL
DBIL [23]: 0.002 mg/dL
GLC [23]: 165.8 mg/dL
IP [23]: 5.5 mg/dL
K [23]: 4.2 meq/L
LDH [23]: 248.4 IU/L
PL [23]: 134.8 mg/dL
RALB [23]: 3.1 g/dL
TBIL [23]: 0.006 mg/dL
TC [23]: 86 mg/dL
TG [23]: 43 mg/dL
TP [23]: 5.8 g/dL
gamma-GTP [23]: 3.8 IU/L
ALP [24]: 311 IU/L
ALT [24]: 47 IU/L
AST [24]: 125 IU/L
BUN [24]: 332 mg/dL
CRE [24]: 3.6 mg/dL
Ca [24]: 9.1 mg/dL
Cl [24]: 93 meq/L
DBIL [24]: 0.01 mg/dL
GLC [24]: 210 mg/dL
IP [24]: 11.7 mg/dL
K [24]: 5.4 meq/L
LDH [24]: 2660 IU/L
Na [24]: 129 meq/L
PL [24]: 140 mg/dL
RALB [24]: 2.3 g/dL
TBIL [24]: 0 mg/dL
TC [24]: 77 mg/dL
TG [24]: 91 mg/dL
TP [24]: 4.5 g/dL
gamma-GTP [24]: 2 IU/L
